Results: article PMC10518255, “A first-in-class pan-lysyl oxidase inhibitor impairs stromal remodeling and enhances gemcitabine response and survival in pancreatic cancer” (Nature Cancer, 2023)
Like-named read-outs stand apart in the source and are kept apart here.

Target: T1, LOXL2 (Homo sapiens, UniProt Q9Y4K0)
T1 sequence (Q9Y4K0 26-774): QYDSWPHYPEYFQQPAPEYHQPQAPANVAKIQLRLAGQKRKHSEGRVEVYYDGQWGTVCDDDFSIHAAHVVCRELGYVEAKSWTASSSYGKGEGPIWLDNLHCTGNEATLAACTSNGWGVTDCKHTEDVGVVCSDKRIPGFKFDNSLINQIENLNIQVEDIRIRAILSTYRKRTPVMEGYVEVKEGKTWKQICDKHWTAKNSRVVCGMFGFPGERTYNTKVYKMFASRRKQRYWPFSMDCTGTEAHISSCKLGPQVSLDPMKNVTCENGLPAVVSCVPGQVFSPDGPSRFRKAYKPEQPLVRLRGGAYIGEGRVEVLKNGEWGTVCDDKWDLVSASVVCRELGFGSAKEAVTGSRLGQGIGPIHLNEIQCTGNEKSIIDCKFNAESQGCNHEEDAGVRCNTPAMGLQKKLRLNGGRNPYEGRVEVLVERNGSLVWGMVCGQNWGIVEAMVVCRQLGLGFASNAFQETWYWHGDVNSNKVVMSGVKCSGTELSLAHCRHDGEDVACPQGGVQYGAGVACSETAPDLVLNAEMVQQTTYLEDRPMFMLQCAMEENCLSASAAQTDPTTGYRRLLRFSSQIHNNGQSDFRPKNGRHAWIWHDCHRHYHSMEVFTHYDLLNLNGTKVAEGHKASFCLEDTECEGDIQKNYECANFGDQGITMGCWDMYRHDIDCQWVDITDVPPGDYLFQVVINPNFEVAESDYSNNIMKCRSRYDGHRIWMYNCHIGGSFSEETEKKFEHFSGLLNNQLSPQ
Assay: Time-dependent inhibition with pre-incubation 0-240 min (Fig. 2e)
Assay type: biochemical
Conditions: for remaining activity at 30 µM: log conc -4.52288; for remaining activity at 30 µM / remaining activity at 10 µM / remaining activity at 3.333 µM / remaining activity at 1.111 µM / remaining activity at 0.3704 µM / remaining activity at 0.12346 µM / remaining activity at 0.04115 µM / remaining activity at 0.013717 µM / remaining activity at 0.004572 µM / remaining activity at 0.001524 µM / remaining activity at 0.0005081 µM / remaining activity at 0.0001694 µM: read-out: LOXL2 specific activity; for remaining activity at 10 µM: log conc -5; for remaining activity at 3.333 µM: log conc -5.47712; for remaining activity at 1.111 µM: log conc -5.95424; for remaining activity at 0.3704 µM: log conc -6.43136; for remaining activity at 0.12346 µM: log conc -6.90849; for remaining activity at 0.04115 µM: log conc -7.38561; for remaining activity at 0.013717 µM: log conc -7.86273; for remaining activity at 0.004572 µM: log conc -8.33985; for remaining activity at 0.001524 µM: log conc -8.81697; for remaining activity at 0.0005081 µM: log conc -9.29409; for remaining activity at 0.0001694 µM: log conc -9.77121
Description: Data are presented as mean ± s.d. […] Data presented as mean ± s.d. […] Source data TEXT PRINTED IN THE PICTURE: (b) PXS-5505: Recombinant DAO IC50 (nM): >30,000; Recombinant SSAO/VAP1 IC50 (nM): >30,000; Recombinant MAO-A IC50 (nM): >30,000; Recombinant MAO-B IC50 (nM): >30,000 | (f) PXS-5505: Fibroblast LOX IC50 (nM): 4,930; Recombinant LOXL-1 IC50 (nM): 1,590; Recombinant LOXL-2 IC50 (nM): 570; Recombinant LOXL-3 IC50 (nM): 1,800; Recombinant LOXL-4 IC50 (nM): 190
Similar to other fluoroallylamine-based amine oxidase inhibitors, the mode of inhibition is assumed to be a two-step mechanism (Fig. 2c), with PXS-5505 reacting with the unique LTQ cofactor found within the active site. The fluoroallylamine facilitates the formation of a covalent, irreversible bond. […] Furthermore, in jump dilution experiments, there is no significant recovery of activity following rapid dilution (LOXL1 (5 ± 5% recovery, n = 4), LOXL2 (7 ± 1.2% recovery, n = 3) and LOXL3 (11 ± 2% recovery, n = 3)).

## Cl.Cl.NC/C=C(\F)CS(=O)(=O)c1cccc2cccnc12.O [PXS-5505, (Z)-3-fluoro-4-(quinolin-8-ylsulfonyl)but-2-en-1-amine dihydrochloride monohydrate]
0.25 h, pre-incubation 15 min
  remaining activity at 30 µM: 1.28%
  remaining activity at 10 µM: 4.38%
  remaining activity at 3.333 µM: 16%
  remaining activity at 1.111 µM: 38.5%
  remaining activity at 0.3704 µM: 64%
  remaining activity at 0.12346 µM: 86.7%
  remaining activity at 0.04115 µM: 93.6%
  remaining activity at 0.013717 µM: 96.4%
  remaining activity at 0.004572 µM: 99.2%
  remaining activity at 0.001524 µM: 98.4%
  remaining activity at 0.0005081 µM: 97.8%
  remaining activity at 0.0001694 µM: 102%
0.5 h, pre-incubation 30 min
  remaining activity at 30 µM: -0.266%
  remaining activity at 10 µM: -0.0903%
  remaining activity at 3.333 µM: 4.21%
  remaining activity at 1.111 µM: 17.3%
  remaining activity at 0.3704 µM: 43.6%
  remaining activity at 0.12346 µM: 72.5%
  remaining activity at 0.04115 µM: 87.7%
  remaining activity at 0.013717 µM: 93.2%
  remaining activity at 0.004572 µM: 96.3%
  remaining activity at 0.001524 µM: 109%
  remaining activity at 0.0005081 µM: 99.4%
  remaining activity at 0.0001694 µM: 103%
1 h, pre-incubation 60 min
  remaining activity at 30 µM: -0.646%
  remaining activity at 10 µM: 0.037%
  remaining activity at 3.333 µM: 1.01%
  remaining activity at 1.111 µM: 5.82%
  remaining activity at 0.3704 µM: 23.2%
  remaining activity at 0.12346 µM: 62.4%
  remaining activity at 0.04115 µM: 86.9%
  remaining activity at 0.013717 µM: 97.3%
  remaining activity at 0.004572 µM: 101%
  remaining activity at 0.001524 µM: 104%
  remaining activity at 0.0005081 µM: 104%
  remaining activity at 0.0001694 µM: 106%
2 h, pre-incubation 120 min
  remaining activity at 30 µM: -0.278%
  remaining activity at 10 µM: 1.09%
  remaining activity at 3.333 µM: 1.27%
  remaining activity at 1.111 µM: 2.05%
  remaining activity at 0.3704 µM: 7.04%
  remaining activity at 0.12346 µM: 36.3%
  remaining activity at 0.04115 µM: 69.5%
  remaining activity at 0.013717 µM: 87.9%
  remaining activity at 0.004572 µM: 97.9%
  remaining activity at 0.001524 µM: 102%
  remaining activity at 0.0005081 µM: 102%
  remaining activity at 0.0001694 µM: 103%
4 h, pre-incubation 240 min
  remaining activity at 30 µM: -0.548%
  remaining activity at 10 µM: 0.438%
  remaining activity at 3.333 µM: 0.0615%
  remaining activity at 1.111 µM: 0.566%
  remaining activity at 0.3704 µM: 1.17%
  remaining activity at 0.12346 µM: 14.1%
  remaining activity at 0.04115 µM: 45.6%
  remaining activity at 0.013717 µM: 71.8%
  remaining activity at 0.004572 µM: 91.6%
  remaining activity at 0.001524 µM: 95.6%
  remaining activity at 0.0005081 µM: 101%
  remaining activity at 0.0001694 µM: 102%
pre-incubation time 0–240 min
  time-dependent inhibition of LOXL2 specific activity: increased potency with increased pre-incubation time
